Assay [1] concerns the target T1, ΔF508-CFTR (Homo sapiens, UniProt P13569, DEL508-508).
T1 construct: Primary lung epithelial cells homozygous for the Cystic Fibrosis-causing ΔF508 mutation were differentiated for a minimum of 4 weeks; endogenous in cells; host or cells: primary human bronchial (lung) epithelial cells (hBE) homozygous for ΔF508, differentiated at an air-liquid interface
As to the kind of experiment: hBE Equivalent Current (Ieq) Assay. The format is cell-based. The settings on record: AUC of equivalent chloride current, primary lung epithelial cells homozygous for ΔF508, 24 h treatment. On the procedure: Primary lung epithelial cells homozygous for the Cystic Fibrosis-causing ΔF508 mutation were differentiated for a minimum of 4 weeks in an air-liquid interface on Costar 24 well HTS filter plates prior to the equivalent current (Ieq) measurements. Cells were apically mucus-washed for 30 minutes 24 h prior to treatment with compounds. The basolateral media was removed and replaced with media containing the compound of interest diluted to its final concentration from DMSO stocks. Treated cells were incubated at 37° C. and 5% CO2 for 24 hours. At the end of the treatment period, the media was changed to the Ieq experimental solution for 30 minutes before the experiment and plates are maintained in a CO2-free incubator during this period. The plates containing the cells were then placed in pre-warmed heating blocks at 36° C.±0.5 for 15 minutes before measurements are taken. The transepithelial voltage (VT) and conductance (GT) were measured using a custom 24 channel current clamp (TECC-24) with 24 well electrode manifold. The Ieq assay measurements were made following additions with standardized time periods: • 1. The baseline VT and GT values were measured for approximately 20 minutes. • 2. Benzamil was added to block ENaC for 15 minutes. • 3. Forskolin plus VX-770 were added to maximally activate ΔF508-CFTR for 27 minutes. • 4. Bumetanide was added to inhibit the NaK2Cl cotransporter and shut-off secretion of chloride.
The activity data captured was the area under the curve (AUC) for the traces of the equivalent chloride current. The AUC was collected from the time of the forskolin/VX-770 addition until the inhibition by bumetanide addition. Correction in response to compound treatment was scored as the increase in the AUC for compound-treated samples over that of vehicle-treated samples.
The results are shown below in Table 2. ++ indicates activity ≥25% run at 10 uM of VX-809 at 1 uM, + indicates activity 10 to <25% run at 10 uM of VX-809 at 1 uM, **indicates activity ≥200% of VX-809 (1 uM) with compound at 10 uM and VX-809 at 1 uM; * indicates activity 100-200% of VX-809 (1 uM) with compound at 10 uM and VX-809 at 1 uM. ^## indicates activity ≥200% of VX-809 (3 uM) with compound at 10 uM and VX-809 at 3 uM; ^# indicates activity 100-200% of VX-809 (3 uM) with compound at 10 uM and VX-809 at 3 uM.

Assay [2] concerns the target T1, ΔF508-CFTR. In words: Ussing Measurements. The settings on record: compound at 10 uM and VX-809 at 3 uM, activity as % of VX-809 (3 uM); CFTRinh-172 inhibitable short-circuit current; hBEs homozygous for ΔF508, 24 h treatment. Format: cell-based. On the procedure: As discussed above, Ussing measurements are used to measure CFTR activity. In this method, primary lung epithelial cells (hBEs) homozygous for the Cystic Fibrosis-causing ΔF508 mutation are differentiated for a minimum of 4 weeks in an air-liquid interface on SnapWell filter plates prior to the Ussing measurements. Cells are apically mucus-washed for 30 minutes prior to treatment with compounds. The basolateral media is removed and replaced with media containing the compound of interest diluted to its final concentration from DMSO stocks. Treated cells are incubated at 37° C. and 5% CO2 for 24 hours. […] The short-circuit current is measured in voltage clamp-mode (Vhold=0 mV), and the entire assay is conducted at a temperature of 36° C.-36.5° C. Once the voltages stabilized, the chambers are clamped, and data is recorded by pulse readings every 5 seconds. Following baseline current stabilization, the following additions can be applied and the changes in current and resistance of the cells can be monitored: • 1. […]
The inhibitable current (that current that is blocked by CFTRinh-172) is measured as the specific activity of the ΔF508-CFTR channel, and increases in response to compound in this activity over that observed in vehicle-treated samples are identified as the correction of ΔF508-CFTR function imparted by the compound tested. […]

The mark [3] stands for this setting: compound at 10 uM and VX-809 at 1 uM, activity as % of VX-809 (1 uM).
The mark [4] stands for this setting: compound run at 10 uM, activity relative to VX-809 at 1 uM.

T1 sequence (P13569 with tags, fused parts or gaps DEL508-508): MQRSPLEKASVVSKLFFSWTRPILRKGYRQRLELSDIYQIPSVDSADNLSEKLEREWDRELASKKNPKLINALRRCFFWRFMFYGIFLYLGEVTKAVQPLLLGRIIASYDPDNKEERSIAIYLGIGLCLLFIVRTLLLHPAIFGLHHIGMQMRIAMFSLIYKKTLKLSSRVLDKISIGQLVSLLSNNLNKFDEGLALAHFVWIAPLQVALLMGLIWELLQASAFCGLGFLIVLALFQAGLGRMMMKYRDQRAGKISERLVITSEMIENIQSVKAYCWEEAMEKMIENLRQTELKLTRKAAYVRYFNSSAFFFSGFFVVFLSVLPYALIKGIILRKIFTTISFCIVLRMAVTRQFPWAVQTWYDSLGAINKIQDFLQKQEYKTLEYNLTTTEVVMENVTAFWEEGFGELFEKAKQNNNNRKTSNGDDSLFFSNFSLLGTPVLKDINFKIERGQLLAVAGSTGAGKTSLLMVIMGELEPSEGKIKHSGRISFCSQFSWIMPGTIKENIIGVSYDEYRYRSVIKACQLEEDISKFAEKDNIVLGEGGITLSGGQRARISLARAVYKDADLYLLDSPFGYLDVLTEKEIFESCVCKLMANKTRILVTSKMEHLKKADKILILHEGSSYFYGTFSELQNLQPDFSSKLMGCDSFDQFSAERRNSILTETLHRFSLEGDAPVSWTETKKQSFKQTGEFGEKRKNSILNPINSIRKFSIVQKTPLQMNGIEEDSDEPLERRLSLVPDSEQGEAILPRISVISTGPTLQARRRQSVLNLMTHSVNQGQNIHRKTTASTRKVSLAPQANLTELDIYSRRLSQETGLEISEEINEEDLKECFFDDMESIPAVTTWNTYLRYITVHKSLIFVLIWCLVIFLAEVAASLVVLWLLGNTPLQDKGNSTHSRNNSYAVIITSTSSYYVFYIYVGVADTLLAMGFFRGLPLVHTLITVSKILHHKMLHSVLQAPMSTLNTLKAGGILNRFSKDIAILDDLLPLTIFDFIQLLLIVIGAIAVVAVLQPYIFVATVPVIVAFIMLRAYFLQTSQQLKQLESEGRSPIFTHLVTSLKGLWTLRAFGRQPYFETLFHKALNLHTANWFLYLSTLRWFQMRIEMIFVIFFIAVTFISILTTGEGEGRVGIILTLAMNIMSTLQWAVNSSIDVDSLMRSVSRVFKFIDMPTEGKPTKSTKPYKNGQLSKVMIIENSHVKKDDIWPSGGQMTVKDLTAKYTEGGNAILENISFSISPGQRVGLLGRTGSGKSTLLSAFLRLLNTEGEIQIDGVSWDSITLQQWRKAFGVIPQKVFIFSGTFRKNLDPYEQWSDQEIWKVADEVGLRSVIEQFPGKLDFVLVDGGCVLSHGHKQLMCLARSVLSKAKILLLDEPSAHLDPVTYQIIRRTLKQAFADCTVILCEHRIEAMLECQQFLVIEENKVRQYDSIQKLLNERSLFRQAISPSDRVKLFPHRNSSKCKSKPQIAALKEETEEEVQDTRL

As to `C[C@@H](O)c1nnc(C2CC(NC(=O)c3cc(-c4ccccc4)no3)C2)o1` (stereo partly drawn) [Example 6], the Ieq result on ΔF508-CFTR [1] (setting [3]) was “* (* indicates activity 100-200% of VX-809 (1 uM) with compound at 10 uM and VX-809 at 1 uM)”. Also, the Ussing entry on ΔF508-CFTR [2] was “## (^## indicates activity ≥200% of VX-809 (3 uM) with compound at 10 uM and VX-809 at 3 uM)”.

Turning to `O=C(NC1CC(n2nncc2CO)C1)c1cc(-c2ccccc2)no1` (stereo not drawn) [Example 5, N-trans-3-(5-(hydroxymethyl)-1H-1,2,3-triazol-1-yl)cyclobutyl)-3-phenylisoxazole-5-carboxamide], the Ussing result at ΔF508-CFTR [2] was “## (^## indicates activity ≥200% of VX-809 (3 uM) with compound at 10 uM and VX-809 at 3 uM)”.

Consider `CC(OC1CCC1)c1nnc([C@H]2C[C@H](NC(=O)c3cc(-c4ccccc4)no3)C2)o1` (relative stereo) [Example 17, N-(trans-3-(5-(1-cyclobutoxyethyl)-1,3,4-oxadiazol-2-yl)cyclobutyl)-3-phenylisoxazole-5-carboxamide], for which the Ieq result at ΔF508-CFTR [1] (setting [3]) was “* (* indicates activity 100-200% of VX-809 (1 uM) with compound at 10 uM and VX-809 at 1 uM)”.

For `O=C(NCC1CCCO1)c1cc(-c2ccccc2)co1` (stereo not drawn) [Example 9, 4-phenyl-N-((tetrahydrofuran-2-yl)methyl)furan-2-carboxamide], the Ieq result at ΔF508-CFTR [1] (setting [4]) is given as “++ (++ indicates activity ≥25% run at 10 uM of VX-809 at 1 uM)”.

On to `CC(OCC(F)(F)F)c1nnc(C2CC(NC(=O)c3cc(-c4ccccc4)no3)C2)o1` (single isomer, unassigned) [Example 15], for which, at ΔF508-CFTR [1] (setting [3]), the Ieq result is “* (* indicates activity 100-200% of VX-809 (1 uM) with compound at 10 uM and VX-809 at 1 uM)”.

Take `C[C@@H](O)c1nnc(C[C@H]2C[C@@H](NC(=O)c3cc(-c4cccs4)no3)C2)o1` [Example 45, N-[(1s,3s)-3-([5-[(1R)-1-Hydroxyethyl]-1,3,4-oxadiazol-2-yl]methyl)cyclobutyl]-3-(thiophen-2-yl)-1,2-oxazole-5-carboxamide]: the Ieq result on ΔF508-CFTR [1] (setting [3]) is “* (* indicates activity 100-200% of VX-809 (1 uM) with compound at 10 uM and VX-809 at 1 uM)”.

For the compound `C[C@@H](O)c1nnc(C[C@H]2C[C@H](NC(=O)c3cc(-c4ccc(F)cc4)no3)C2)s1` [Example 44, 3-(4-Fluorophenyl)-N-[(1r,3r)-3-([5-[(1R)-1-hydroxyethyl]-1,3,4-thiadiazol-2-yl]methyl)cyclobutyl]-1,2-oxazole-5-carboxamide], on ΔF508-CFTR [1] (setting [3]), the Ieq entry is “** (**indicates activity ≥200% of VX-809 (1 uM) with compound at 10 uM and VX-809 at 1 uM)”.

With `O=C(N[C@H]1C[C@H](c2nnc(C3CS(=O)(=O)C3)o2)C1)c1cc(-c2ccccc2)no1` [Example 23, N-(trans-3-(5-(1,1-dioxidothietan-3-yl)-1,3,4-oxadiazol-2-yl)cyclobutyl)-3-phenylisoxazole-5-carboxamide], the Ieq result at ΔF508-CFTR [1] (setting [3]) was “* (* indicates activity 100-200% of VX-809 (1 uM) with compound at 10 uM and VX-809 at 1 uM)”.

In the case of `C[C@@H](O)c1nnc(CC2CC(NC(=O)c3cc(-c4ccc(F)cc4)no3)C2)o1` (stereo partly drawn) [Example 40, 3-(4-Fluorophenyl)-N-[(1r,3r)-3-([5-[(1R)-1-hydroxyethyl]-1,3,4-oxadiazol-2-yl]methyl)cyclobutyl]-1,2-oxazole-5-carboxamide], the Ieq result at ΔF508-CFTR [1] (setting [3]) was “** (**indicates activity ≥200% of VX-809 (1 uM) with compound at 10 uM and VX-809 at 1 uM)”.

With `O=C(NC1CC1)c1cc(-c2ccccc2)co1` [Example 12, N-cyclopropyl-4-phenylfuran-2-carboxamide], the Ieq entry was “* (* indicates activity 100-200% of VX-809 (1 uM) with compound at 10 uM and VX-809 at 1 uM)” at ΔF508-CFTR [1] (setting [3]); “++ (++ indicates activity ≥25% run at 10 uM of VX-809 at 1 uM)” at ΔF508-CFTR [1] (setting [4]).

On to `O=C(N[C@H]1C[C@@H](n2cc(CO)nn2)C1)c1cc(-c2ccccc2)no1` [Example 29, N-(cis-3-(4-(hydroxymethyl)-1H-1,2,3-triazol-1-yl)cyclobutyl)-3-phenylisoxazole-5-carboxamide], for which the Ieq entry at ΔF508-CFTR [1] (setting [3]) is “** (**indicates activity ≥200% of VX-809 (1 uM) with compound at 10 uM and VX-809 at 1 uM)”.

In the case of `Cn1nccc1CCCNC(=O)c1cc(-c2ccccc2)no1` [Example 7, N-(3-(1-methyl-1H-pyrazol-5-yl)propyl)-3-phenylisoxazole-5-carboxamide], the Ieq result on ΔF508-CFTR [1] (setting [3]) is “* (* indicates activity 100-200% of VX-809 (1 uM) with compound at 10 uM and VX-809 at 1 uM)”; at ΔF508-CFTR [1] (setting [4]), “++ (++ indicates activity ≥25% run at 10 uM of VX-809 at 1 uM)”.

Source of the values: US11098035B2, “Compounds, compositions, and methods for increasing CFTR activity” (Proteostasis Therapeutics, Inc., priority 2014, dated 2021).
